Patent US4108991A, “N-aminosulfenyl derivatives of aldicarb” (priority 1976, dated 1978)

Legend:
[1] = test system: Milkweed bug; assay: Residual (7-day) contact activity, milkweed bug; format: in vivo, Oncopeltus fasciatus [Dallas]; settings: Oncopeltus fasciatus, 168 h
Procedure: (§1) Initial Contact Activity: One half gram of test compound was dissolved in 40 ml of acetone and this solution was dispersed in 360 ml of water containing one drop of isooctylphenyl polyethoxyethanol. Aliquots of this solution, which corresponds to 1250 ppm of active ingredient, were diluted with an appropriate amount of water to provide solutions containing various concentrations of active ingredient. Test organisms and techniques were as follows: The activity against the Mexican bean beetle (Epilachna varivestis Muls.) and the southern armyworm (Spodoptera eridania [Cram.]) was evaluated by dipping the leaves of pinto bean plants into the test solution and infesting the leaves with the appropriate immature-form insects when the foiliage had dried; the activity against the pea aphid (Acyrthosiphon pisum [Harris]) was evaluated on broad bean plants whose leaves were dipped before infestation with adult aphids; the activity against two-sotted spider mites (Tetranychus urticae Koch) was evaluated on pinto bean plants whose leaves were dipped after infestation with adult mites; the activity against the milkweed bug (Oncopeltus fasciatus [Dallas]), and the plum curculio (Conotrachelus nenuphar [Herbst]) was evaluated by spraying the test solutions into glass dishes or jars containing the adult insects; the activity against the confused flour beetle (Tribolium confusum duVal) was evaluated by introducing the insects into glass dishes which had been previously sprayed with test solution and allowed to dry. All organisms in the test were maintained in a holding room at 80° F and 50% relative humidity for an exposure period of 48 hours. At the end of this time, the dead and living insects or mites were counted, and the percent kill was calculated.
(§2) Residual Contact Activity: The residual contact activity of the compounds was determined on the same organisms using the techniques described above, except that in each case the treated surface was allowed to dry and was exposed to normal light and air for seven days before introduction of the mites or insects.

[2] = test system: Milkweed bug; assay: Initial contact activity, spray, milkweed bug; format: in vivo, Oncopeltus fasciatus [Dallas]; settings: Oncopeltus fasciatus, 48 h, initial, MWB, 48 hours, read-out: Percent Kill
Procedure: as §1

[3] = test system: Two-spotted spider mite; assay: Initial contact activity, leaf dip, two-spotted spider mite; format: in vivo, Tetranychus urticae Koch; settings: Tetranychus urticae, foliar, 48 h, initial, SM, 48 hours, read-out: Percent Kill
Procedure: as §1

[4] = test system: Pea aphid; assay: Systemic activity, soil-watering, pea aphid; format: in vivo, Acyrthosiphon pisum [Harris]; settings: Acyrthosiphon pisum, 48 h, systemic, PA, read-out: Percent Kill
Procedure: as §1
(§3) Systemic Activity: Systemic activity was measured using a soil-watering technique. Test organisms were Mexican bean beetle, southern armyworm, pea aphid, and mites on plants as described above in this Example. With appropriate precautions to avoid contact of the solution with the test plant surfaces, 25 ml of a test solution, prepared as above to contain the desired amount of active ingredient, were poured evenly over the surface of the soil in which the plant was growing. The treated plants were maintained under normal growing conditions for three days to permit translocation of the toxicant, after which the leaves were infested. Two days after infestation, counts of living and dead insects were made.

[5] = test system: Southern armyworm; assay: Systemic activity, soil-watering, southern armyworm; format: in vivo, Spodoptera eridania [Cram.]; settings: Spodoptera eridania, 48 h, systemic, AW, read-out: Percent Kill
Procedure: as §1, §3

[6] = test system: Mexican bean beetle; assay: Initial contact activity, leaf dip, Mexican bean beetle; format: in vivo, Epilachna varivestis Muls.; settings: Epilachna varivestis, foliar, 48 h, initial, BB, 48 hours, read-out: Percent Kill
Procedure: as §1

[7] = test system: Granary Weevil; assay: Initial contact activity, granary weevil; format: in vivo; settings: Sitophilus granarius, 48 h, initial, GW, 48 hours, read-out: Percent Kill
[8] = test system: Two-spotted spider mite; assay: Systemic activity, soil-watering, two-spotted spider mite; format: in vivo, Tetranychus urticae Koch; settings: Tetranychus urticae, 48 h, systemic, SM, read-out: Percent Kill
Procedure: as §1, §3

[9] = test system: Mexican bean beetle; assay: Residual (7-day) contact activity, Mexican bean beetle; format: in vivo, Epilachna varivestis Muls.; settings: Epilachna varivestis, 168 h
Procedure: as §1, §2

Compound `CSC(C)(C)C=NOC(=O)N(C)SN(C)C` [Example IV, 2-Methyl-2-(methylthio)propanal O-[(dimethylaminosulfenyl)-(methyl)carbamoyl]oxime] has a mortality at 625 ppm ([1]; read-out: Percent Kill, residual 7-day, MWB, 625 PPM) of 100%, a mortality at 312 ppm ([1]; residual 7-day, MWB, 312 PPM, read-out: Percent Kill) of 65% and a mortality at 1250 ppm ([1]; residual 7-day, MWB, 1250 PPM, read-out: Percent Kill) of 100%. For the same compound, the mortality at 5 ppm ([2]; 5 PPM) was 20%, the mortality at 10 ppm ([2]; 10 PPM) was 26% and the mortality at 20 ppm ([2]; 20 PPM) was 43%. For the same compound, the mortality at 1250 ppm ([2]; 1250 PPM) was 100%, the mortality at 5 ppm ([3]; 5 PPM) was 17% and the mortality at 10 ppm ([3]; 10 PPM) was 36%. For the same compound, the mortality at 20 ppm ([3]; 20 PPM) was 83%, the mortality at 39 ppm ([3]; 39 PPM) was 100% and the mortality at 156 ppm ([3]; 156 PPM) was 0%. For the same compound, the mortality at 1250 ppm ([3]; 1250 PPM) was 100%, the mortality at 5 ppm ([4]; 5 PPM) was 100% and the mortality at 10 ppm ([4]; 10 PPM) was 100%. For the same compound, the mortality at 312 ppm ([4]; 312 PPM) was 100%, the mortality at 39 ppm ([5]; 39 PPM) was 0% and the mortality at 312 ppm ([5]; 312 PPM) was 100%. For the same compound, the mortality at 20 ppm ([6]; 20 PPM) was 5%, the mortality at 39 ppm ([6]; 39 PPM) was 6% and the mortality at 156 ppm ([6]; 156 PPM) was 39%. The mortality at 1250 ppm ([6]; 1250 PPM) was 100%, the mortality at 20 ppm ([7]; 20 PPM) was 0% and the mortality at 39 ppm ([7]; 39 PPM) was 5%. For the same compound, the mortality at 156 ppm ([7]; 156 PPM) was 50%, the mortality at 1250 ppm ([7]; 1250 PPM) was 100% and the mortality at 5 ppm ([8]; 5 PPM) was 100%. The mortality at 39 ppm ([8]; 39 PPM) was 100%, the mortality at 312 ppm ([8]; 312 PPM) was 100% and the mortality at 625 ppm ([9]; read-out: Percent Kill, residual 7-day, BB, 625 PPM) was 40%. It also gave a mortality at 312 ppm ([9]; residual 7-day, BB, 312 PPM, read-out: Percent Kill) of 17% and a mortality at 1250 ppm ([9]; residual 7-day, BB, 1250 PPM, read-out: Percent Kill) of 50%.
